In brackets after ≈: the same amount, converted by molar mass.
Assays:
[1] = test system: Rattus norvegicus; assay: Inhibition of AII induced rat assessed as vasoconstrictor at 15 mg/kg, iv; assay type: functional
[2] = biological target: T1, Type-1 angiotensin II receptor A (Rattus norvegicus, UniProt P25095); assay: Inhibition of rat adrenal cortex angiotensin II; assay type: tissue-based
T1 sequence (P25095 whole entry): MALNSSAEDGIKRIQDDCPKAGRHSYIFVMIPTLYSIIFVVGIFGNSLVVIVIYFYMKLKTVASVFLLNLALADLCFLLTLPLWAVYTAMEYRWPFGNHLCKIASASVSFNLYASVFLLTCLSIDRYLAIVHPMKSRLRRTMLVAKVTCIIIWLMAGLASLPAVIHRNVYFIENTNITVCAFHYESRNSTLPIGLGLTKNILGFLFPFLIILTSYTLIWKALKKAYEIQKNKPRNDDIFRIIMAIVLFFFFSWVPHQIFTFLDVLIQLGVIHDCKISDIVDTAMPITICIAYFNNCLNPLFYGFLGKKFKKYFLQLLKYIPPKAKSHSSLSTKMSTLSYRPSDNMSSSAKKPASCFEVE

[3] = test system: Rattus norvegicus; assay: Inhibition of AII induced mean arterial blood pressure in rat assessed as vasoconstrictor at 5 mg/kg, po; assay type: functional
[4] = biological target: T2, Type-2 angiotensin II receptor (Rattus norvegicus, UniProt P35351); assay: Binding affinity to AT2 in rat brain; assay type: tissue-based
T2 sequence (P35351 whole entry): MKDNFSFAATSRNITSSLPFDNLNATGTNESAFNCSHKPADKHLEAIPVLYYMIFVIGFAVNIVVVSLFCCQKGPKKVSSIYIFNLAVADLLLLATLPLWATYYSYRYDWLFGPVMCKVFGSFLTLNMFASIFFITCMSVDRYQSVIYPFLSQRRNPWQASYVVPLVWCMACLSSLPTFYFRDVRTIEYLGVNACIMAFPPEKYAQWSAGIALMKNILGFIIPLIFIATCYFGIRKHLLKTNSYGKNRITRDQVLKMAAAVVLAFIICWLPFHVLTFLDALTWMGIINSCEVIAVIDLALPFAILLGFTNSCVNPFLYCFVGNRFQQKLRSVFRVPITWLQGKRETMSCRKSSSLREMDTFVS

[5] = test system: Staphylococcus epidermidis; assay: Antimicrobial activity against Staphylococcus epidermidis assessed as bacterial growth inhibition; assay type: functional
[6] = test system: Bacillus subtilis; assay: Antimicrobial activity against Bacillus subtilis assessed as bacterial growth inhibition; assay type: functional
[7] = test system: Micrococcus luteus; assay: Antimicrobial activity against Micrococcus luteus assessed as bacterial growth inhibition; assay type: functional
[8] = test system: Proteus vulgaris; assay: Antimicrobial activity against Proteus vulgaris assessed as bacterial growth inhibition; assay type: functional
[9] = test system: Pseudomonas aeruginosa; assay: Antimicrobial activity against Pseudomonas aeruginosa assessed as bacterial growth inhibition; assay type: functional
[10] = test system: Candida albicans; assay: Antimicrobial activity against Candida albicans assessed as bacterial growth inhibition; assay type: functional
[11] = test system: Citrobacter freundii; assay: Antimicrobial activity against Citrobacter freundii assessed as bacterial growth inhibition; assay type: functional
[12] = test system: Klebsiella oxytoca; assay: Antimicrobial activity against Klebsiella oxytoca assessed as bacterial growth inhibition; assay type: functional
[13] = test system: Escherichia coli; assay: Antimicrobial activity against Escherichia coli assessed as bacterial growth inhibition; assay type: functional
[14] = test system: Proteus mirabilis; assay: Antimicrobial activity against Proteus mirabilis assessed as bacterial growth inhibition; assay type: functional
[15] = test system: Staphylococcus saprophyticus; assay: Antimicrobial activity against Staphylococcus saprophyticus assessed as bacterial growth inhibition; assay type: functional
[16] = test system: Staphylococcus aureus; assay: Antimicrobial activity against Staphylococcus aureus assessed as bacterial growth inhibition; assay type: functional
[17] = test system: Mycolicibacterium phlei; assay: Antimicrobial activity against Mycobacterium phlei assessed as bacterial growth inhibition; assay type: functional
[18] = test system: Fusarium oxysporum; assay: Antifungal activity against Fusarium oxysporum assessed as bacterial growth inhibition at 50 ug/ml incubated for 5 days relative to control; assay type: functional; details: 120 h, time 5 day
[19] = test system: Cytospora mali; assay: Antifungal activity against Valsa mali assessed as bacterial growth inhibition at 50 ug/ml incubated for 5 days relative to control; assay type: functional; details: 120 h, time 5 day
[20] = test system: Fusarium graminearum; assay: Antifungal activity against Gibberella zeae assessed as bacterial growth inhibition at 50 ug/ml incubated for 5 days relative to control; assay type: functional; details: 120 h, time 5 day

`CCC1Nc2ccc(C)cc2C(=O)N1Cc1ccc(-c2ccccc2-c2nn[nH]n2)cc1` (centres undefined) was tested, and the inhibition in vivo at 15 mg/kg [1] was 88% and the IC50 [2] was 13000 nM.
`CCCCc1nc2ccc(C(C)O)cc2c(=O)n1Cc1ccc(-c2ccccc2-c2nn[nH]n2)cc1` (centres undefined) was tested, and the Activity [3] was 65 mmHg and the IC50 [2] was 5 nM.
For `CCCc1nc2ccc(N(Cc3ccccc3)C(=O)OC(C)(C)C)cc2c(=O)n1Cc1ccc(-c2ccccc2-c2nnn[nH]2)cc1`, the IC50 [4] was 0.46 nM.
With `O=c1c2ccc([N+](=O)[O-])cc2nc(/C=C/c2ccc(Cl)cc2)n1-c1ccc(O)cc1` the MIC [5] was 125 µg/mL (≈ 298 µM), the MIC [6] was 125 µg/mL (≈ 298 µM) and the MIC [7] was 125 µg/mL (≈ 298 µM). The MIC [8] was 125 µg/mL (≈ 298 µM), the MIC [9] was 125 µg/mL (≈ 298 µM) and the MIC [10] was 125 µg/mL (≈ 298 µM). For the same molecule, the MIC [11] was 125 µg/mL (≈ 298 µM), the MIC [12] was 125 µg/mL (≈ 298 µM) and the MIC [13] was 125 µg/mL (≈ 298 µM). The MIC [14] was 125 µg/mL (≈ 298 µM), the MIC [15] was 125 µg/mL (≈ 298 µM) and the MIC [16] was 125 µg/mL (≈ 298 µM). For the same molecule, the MIC [17] was 125 µg/mL (≈ 298 µM).
`CCC1Nc2ccc(C(C)C)cc2C(=O)N1Cc1ccc(-c2ccccc2-c2nn[nH]n2)cc1` (centres undefined) was tested, and the inhibition in vivo at 15 mg/kg [1] was 88% and the IC50 [2] was 90 nM.
`C=CCn1cnc2ccc(Cl)cc2c1=O` gave an inhibition at 50 µg/mL [18] of 4.9%, an inhibition at 50 µg/mL [19] of 28.3% and an inhibition at 50 µg/mL [20] of 5.5%.
`CCCn1cnc2ccc(F)cc2c1=O` gave an inhibition at 50 µg/mL [18] of 4.9%, an inhibition at 50 µg/mL [19] of 0.9% and an inhibition at 50 µg/mL [20] of 5.5%.
`CCn1cnc2ccc(Cl)cc2c1=O` was tested, and the inhibition at 50 µg/mL [18] was 4.9%, the inhibition at 50 µg/mL [19] was 0.9% and the inhibition at 50 µg/mL [20] was 5.5%.
For `Cc1cc(O)no1` [HYMEXAZOL], the inhibition at 50 µg/mL [18] was 55.4%, the inhibition at 50 µg/mL [19] was 22.5% and the inhibition at 50 µg/mL [20] was 50.4%.
`Cc1nc2ccc(N(Cc3ccccc3Cl)C(=O)c3ccccc3)cc2c(=O)n1Cc1ccc(-c2ccccc2-c2nn[nH]n2)cc1` was tested, and the IC50 [4] was 0.06 nM.
`CCn1cnc2ccc(F)cc2c1=O` showed an inhibition at 50 µg/mL [18] of 4.9%, an inhibition at 50 µg/mL [19] of 0.9% and an inhibition at 50 µg/mL [20] of 5.5%.
`CCCCC1N(Cc2ccc(-c3ccccc3-c3nn[nH]n3)cc2)C(=O)c2ccccc2N1C` (centres undefined) gave an inhibition in vivo at 15 mg/kg [1] of 88% and an IC50 [2] of 14000 nM.
`O=c1c2ccc(Cl)cc2nc(/C=C/c2ccccc2[N+](=O)[O-])n1-c1ccc(O)cc1` gave an MIC [5] of 125 µg/mL (≈ 298 µM), an MIC [6] of 125 µg/mL (≈ 298 µM) and an MIC [7] of 125 µg/mL (≈ 298 µM). It also gave an MIC [8] of 125 µg/mL (≈ 298 µM), an MIC [9] of 125 µg/mL (≈ 298 µM) and an MIC [10] of 125 µg/mL (≈ 298 µM). For the same molecule, the MIC [11] was 125 µg/mL (≈ 298 µM), the MIC [12] was 125 µg/mL (≈ 298 µM) and the MIC [13] was 125 µg/mL (≈ 298 µM). For the same molecule, the MIC [14] was 125 µg/mL (≈ 298 µM), the MIC [15] was 125 µg/mL (≈ 298 µM) and the MIC [16] was 125 µg/mL (≈ 298 µM). For the same molecule, the MIC [17] was 125 µg/mL (≈ 298 µM).
`CCCCc1nc2ccc(C(O)C(C)(C)C)cc2c(=O)n1Cc1ccc(-c2ccccc2-c2nn[nH]n2)cc1` (centres undefined) was tested, and the Activity [3] was 65 mmHg and the IC50 [2] was > 1000 nM.
`CCn1cnc2ccc(Br)cc2c1=O` gave an inhibition at 50 µg/mL [18] of 4.9%, an inhibition at 50 µg/mL [19] of 0.9% and an inhibition at 50 µg/mL [20] of 5.5%.
`CCCCc1nc2ccc(C(C)OC)cc2c(=O)n1Cc1ccc(-c2ccccc2-c2nn[nH]n2)cc1` (centres undefined) showed an Activity [3] of 65 mmHg and an IC50 [2] of 18 nM.
`CCCC1N(Cc2ccc(-c3ccccc3-c3nn[nH]n3)cc2)C(=O)c2ccccc2N1C` (centres undefined) was tested, and the inhibition in vivo at 15 mg/kg [1] was 88% and the IC50 [2] was 540 nM.
Molecule `CCCCC1Nc2ccccc2C(=O)N1Cc1ccc(-c2ccccc2-c2nn[nH]n2)cc1` (centres undefined) has an inhibition in vivo at 15 mg/kg [1] of 88% and an IC50 [2] of 14000 nM.
For `CCCCC1Nc2ccc(C(C)C)cc2C(=O)N1Cc1ccc(-c2ccccc2-c2nn[nH]n2)cc1` (centres undefined), the inhibition in vivo at 15 mg/kg [1] was 88% and the IC50 [2] was 1100 nM.
`CCCCC(CCCC)C1Nc2ccccc2C(=O)N1Cc1ccc(-c2ccccc2-c2nnn[nH]2)cc1` (centres undefined) gave an inhibition in vivo at 15 mg/kg [1] of 88% and an IC50 [2] of 12000 nM.
Molecule `CCc1nc2ccc(N(Cc3ccccc3Cl)C(=O)c3ccccc3)cc2c(=O)n1Cc1ccc(-c2ccccc2-c2nn[nH]n2)cc1` has an IC50 [4] of 0.22 nM.
With `CCCn1cnc2ccc(Br)cc2c1=O` the inhibition at 50 µg/mL [18] was 47.2%, the inhibition at 50 µg/mL [19] was 0.9% and the inhibition at 50 µg/mL [20] was 55%.
`C=CCn1cnc2ccc(F)cc2c1=O` gave an inhibition at 50 µg/mL [18] of 4.9%, an inhibition at 50 µg/mL [19] of 0.9% and an inhibition at 50 µg/mL [20] of 5.5%.
For `CCCCc1nc2ccc(C(OC)c3ccccc3)cc2c(=O)n1Cc1ccc(-c2ccccc2-c2nn[nH]n2)cc1` (centres undefined), the Activity [3] was 65 mmHg and the IC50 [2] was > 1000 nM.
`CCCC1Nc2ccccc2C(=O)N1Cc1ccc(-c2ccccc2-c2nn[nH]n2)cc1` (centres undefined) was tested, and the inhibition in vivo at 15 mg/kg [1] was 88% and the IC50 [2] was 540 nM.
In the case of `CCCCc1nc2ccc(C(C)NC(C)=O)cc2c(=O)n1Cc1ccc(-c2ccccc2-c2nn[nH]n2)cc1` (centres undefined), the Activity [3] is reported as 65 mmHg and the IC50 [2] is reported as > 1000 nM.

Source: ChEMBL document CHEMBL5260833, “An overview of quinazolines: Pharmacological significance and recent developments” (Eur J Med Chem, 2018)
